Measured values from US10442804B2, “Compounds for the treatment of hepatitis B virus infection” (Gilead Sciences, Inc., priority 2017, dated 2019).
Where two headings read alike, the source gives them in different places. Each block holds one molecule with its values, some of them ahead of it.

Assays:
[1] = system: HBV-infected NTCP-HepG2 cells, secreted HBsAg; assay: microbe, parasite or virus in culture; format: cell-based, hepatitis B virus (genotype D, AD38-derived); conditions: Hepatitis B virus, 120 h, secreted HBsAg in supernatant after 5 days; geometric mean of minimum four determinations; read-out: NTCP HBsAg EC50
Method in brief: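 NTCP-HepG2 cells were infected with genotype D HBV at 4000 genome equivalents/cell, then seeded 4 days post-infection with serially diluted compounds (1% DMSO) for 5 days. Supernatant HBsAg was measured by chemiluminescent MSD immunoassay. EC50 from four-parameter fit, geometric mean of ≥4 determinations.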

MT-4 cytotoxicity assay = format: cell-based, human; conditions: human, five days, Cell Titer Glo luminescence; read-out: MT-4 CC50
[2] = In vitro metabolic stability, hepatocyte stability (rat); format: in vitro ADME; conditions: Rat hepatocytes, read-out: hepatocyte stability T1/2 (converted)
Method: (§1) Biological Example 3: In Vitro Metabolic Stability
(§2) For hepatocyte stability incubations, cells were obtained from BioreclamationIVT (Baltimore, Md.), thawed according to the manufacturer's directions, and resuspended to a final concentration of 1×10^6 cells/mL in Krebs-Henseleit buffer prewarmed to 37° C. The total cell count and the proportion of viable cells were determined by Trypan Blue dye exclusion using a hemocytometer. The final concentration of test compounds and positive controls was 2 μM. Incubations were carried out in duplicate wells of a 24-well plate out with gentle shaking at 37° C. under a humid atmosphere of 95% air/5% CO2 (v/v). Aliquots (50 μL) were removed after 0, 1, 3, and 6 hours and added to 100 μL quenching solution. Samples were then processed and analyzed in a manner similar to the microsomal stability samples.
(§3) Quantification of test compounds and positive controls were performed using analyte/internal standard peak area ratios (PAR) measured on a Q-Exactive mass spectrometer (Thermo Scientific, San Jose, Calif.) coupled to an Aria Transcend LX-4 multiplex UHPLC system (Thermo Scientific, San Jose, Calif.). […] Half-lives of compounds in the incubations were calculated from extracted data using GMSU/QuickCalc (Gubbs, Inc.) and data are summarized in the following Table 2.

[3] = In vitro metabolic stability, hepatocyte stability (dog); format: in vitro ADME; conditions: Dog hepatocytes, read-out: hepatocyte stability T1/2 (converted)
Method: as §1, §2, §3

[4] = In vitro metabolic stability, hepatocyte stability (cynomolgus monkey); format: in vitro ADME; conditions: Cyno hepatocytes, read-out: hepatocyte stability T1/2 (converted)
Method: as §1, §2, §3

[5] = In vitro metabolic stability, hepatocyte stability (human); format: in vitro ADME; conditions: Human hepatocytes, read-out: hepatocyte stability T1/2 (converted)
Method: as §1, §2, §3

[6] = system: Human iPSC derived iCell GABAergic Neurons; assay: Human iPSC neurite outgrowth assay; format: cell-based
Method: Biological Example 4: Toxicology Study
Human iPSC Neurite Outgrowth Assay
Human induced pluripotent stem cell (iPSC) derived iCell GABAergic Neurons (Cellular Dynamics Inc.) were seeded at a density of 67,500 cells per square centimeter into 384 well plates. The neurons were plated for 1 hour in attachment media before exchange for serum-free growth media (Cellular Dynamics Inc.). The serum-free growth media was exchanged for fresh media and the plated neurons were treated with test compounds and control compounds at 6 concentrations (1 nM-100 μM) at 4 and 24 hour timepoints in triplicate wells. Optimum neuron cell attachment to the plates was obtained at the 24 hour timepoint. Vincristine was utilized as the positive control for toxic inhibition of neurite outgrowth and 0.1% DMSO treatment was used for control treatment of neurons. Celltracker and DRAQ7 stains were applied prior to fixation of cells to assess nuclear and cell viability. Cells were then fixed for 20 minutes in 4% formaldehyde in PBS containing Hoechst dye and then fixative was replaced with PBS twice. High content imaging was performed with 9 fields of 20× magnification on a CX7 HCS system with an algorithm to enable quantification of neurite lengths and neurite branch points in all treatment groups. The results of the counts and measurements were then analyzed by the strictly standardized mean difference (SSMD) method of analysis to measure effect size for any decreases in mean neurite total length per cell (microns) or changes in mean branch point counts per cell (PhenoVista Biosciences, San Diego). FIG. 1 depicting plots of mean branch point counts per cell as a function of concentration for Vincristine, RG783/R07020322, and Compound 73 (free base, purified without addition of TFA). […]

SMILES: COCCCOc1cc2c(cc1Cl)-c1cc(=O)c(C(=O)O)cn1N1[C@@H]2CCC1(C)C (single isomer, unassigned) [Example 5]
- EC50 [1]: 1.7 nM
- CC50 at 5 days (MT-4 cytotoxicity assay): > 10000 nM
- half-life at 2 μM [2]: > 39.5 h
- half-life at 2 μM [3]: > 39.5 h
- half-life at 2 μM [4]: 20.8 h
- half-life at 2 μM [5]: > 39.5 h

SMILES: COCCCOc1cc2c(cc1COC)-c1cc(=O)c(C(=O)O)cn1N1[C@@H]2CCC1(C)C [Example 73, (R)-11-(methoxymethyl)-12-(3-methoxypropoxy)-3,3-dimethyl-8-oxo-2,3,8,13b-tetrahydro-1H-pyrido[2,1-a]pyrrolo[1,2-c]phthalazine-7-carboxylic acid]
- EC50 [1]: 1.9 nM
- CC50 at 5 days (MT-4 cytotoxicity assay): > 10000 nM
- neurite total length and branch point counts [6]: No significant effects

SMILES: COCc1cc2c(cc1C#CC(C)(C)OC)[C@H]1CCC(C)(C)N1n1cc(C(=O)O)c(=O)cc1-2 [Example 97, (R)-12-(3-methoxy-3-methylbut-1-yn-1-yl)-11-(methoxymethyl)-3,3-dimethyl-8-oxo-2,3,8,13b-tetrahydro-1H-pyrido[2,1-a]pyrrolo[1,2-c]phthalazine-7-carboxylic acid]
- EC50 [1]: 8.6 nM
- CC50 at 5 days (MT-4 cytotoxicity assay): > 10000 nM

SMILES: CC1(C)CC[C@@H]2c3cc(OCCCOC4COC4)c(Cl)cc3-c3cc(=O)c(C(=O)O)cn3N21 [Example 98, (R)-11-chloro-3,3-dimethyl-12-(3-(oxetan-3-yloxy)propoxy)-8-oxo-2,3,8,13b-tetrahydro-1H-pyrido[2,1-a]pyrrolo[1,2-c]phthalazine-7-carboxylic acid]
- EC50 [1]: 2.2 nM
- CC50 at 5 days (MT-4 cytotoxicity assay): > 10000 nM

SMILES: CC1(C)CC[C@@H]2c3cc(OCC45CC(C#N)(C4)C5)c(C4CC4)cc3-c3cc(=O)c(C(=O)O)cn3N21 [Example 99, (R)-12-((3-cyanobicyclo[1.1.1]pentan-1-yl)methoxy)-11-cyclopropyl-3,3-dimethyl-8-oxo-2,3,8,13b-tetrahydro-1H-pyrido[2,1-a]pyrrolo[1,2-c]phthalazine-7-carboxylic acid]
- EC50 [1]: 0.66 nM
- CC50 at 5 days (MT-4 cytotoxicity assay): 3600 nM

SMILES: CCc1cc2c(cc1OCC13CC(C#N)(C1)C3)[C@H]1CCC(C)(C)N1n1cc(C(=O)O)c(=O)cc1-2 [Example 100, (R)-12-((3-cyanobicyclo[1.1.1]pentan-1-yl)methoxy)-11-ethyl-3,3-dimethyl-8-oxo-2,3,8,13b-tetrahydro-1H-pyrido[2,1-a]pyrrolo[1,2-c]phthalazine-7-carboxylic acid]
- EC50 [1]: 0.48 nM
- CC50 at 5 days (MT-4 cytotoxicity assay): 3900 nM

SMILES: COCCCOc1cc2c(cc1C1CC1)-c1cc(=O)c(C(=O)O)cn1N1[C@@H]2COCC1(C)C [Example 101, (S)-12-cyclopropyl-13-(3-methoxypropoxy)-4,4-dimethyl-9-oxo-3,4,9,14b-tetrahydro-1H-[1,4]oxazino[3,4-a]pyrido[1,2-c]phthalazine-8-carboxylic acid]
- EC50 [1]: 0.7 nM
- CC50 at 5 days (MT-4 cytotoxicity assay): 8200 nM

SMILES: COCCCOc1cc2c(cc1COC)-c1cc(=O)c(C(=O)O)cn1N1[C@@H]2COCC1(C)C [Example 102, (S)-12-(methoxymethyl)-13-(3-methoxypropoxy)-4,4-dimethyl-9-oxo-3,4,9,14b-tetrahydro-1H-[1,4]oxazino[3,4-a]pyrido[1,2-c]phthalazine-8-carboxylic acid]
- EC50 [1]: 11.5 nM
- CC50 at 5 days (MT-4 cytotoxicity assay): > 10000 nM

SMILES: COC(C)(C)C#Cc1cc2c(cc1OC(F)F)-c1cc(=O)c(C(=O)O)cn1N1[C@@H]2CCC1(C)C [Example 103, (R)-11-(difluoromethoxy)-12-(3-methoxy-3-methylbut-1-yn-1-yl)-3,3-dimethyl-8-oxo-2,3,8,13b-tetrahydro-1H-pyrido[2,1-a]pyrrolo[1,2-c]phthalazine-7-carboxylic acid]
- EC50 [1]: 0.82 nM
- CC50 at 5 days (MT-4 cytotoxicity assay): > 10000 nM

SMILES: CC1(C)CC[C@@H]2c3cc(OCC45CC(C#N)(C4)C5)c(OC(F)F)cc3-c3cc(=O)c(C(=O)O)cn3N21 [Example 104, (R)-12-((3-cyanobicyclo[1.1.1]pentan-1-yl)methoxy)-11-(difluoromethoxy)-3,3-dimethyl-8-oxo-2,3,8,13b-tetrahydro-1H-pyrido[2,1-a]pyrrolo[1,2-c]phthalazine-7-carboxylic acid]
- EC50 [1]: 2.7 nM
- CC50 at 5 days (MT-4 cytotoxicity assay): > 10000 nM

- neurite total length and branch point counts [6]: significant decreases
- Decreased Neurite Length SSMD Values ([6]; human, 4 h, 10 μM): −3.8
- Branch Point Count SSMD Values ([6]; human, 4 h, 100 μM): −5.2
- Decreased Neurite Length SSMD Values ([6]; human, 4 h, 100 μM): −4.0
- Branch Point Count SSMD Values ([6]; human, 24 h, 1 μM): −3.3
- Decreased Neurite Length SSMD Values ([6]; human, 24 h, 1 μM): −3.4
- Branch Point Count SSMD Values ([6]; human, 24 h, 10 μM): −3.4
- Decreased Neurite Length SSMD Values ([6]; human, 24 h, 10 μM): −5.9
- Branch Point Count SSMD Values ([6]; human, 24 h, 100 μM): −5.0
- Decreased Neurite Length SSMD Values ([6]; human, 24 h, 100 μM): −4.5
SMILES: COCCCOc1cc2c(cc1OC)-c1cc(=O)c(C(=O)O)cn1[C@H](C(C)C)C2 [RG7834/R07020322]

- neurite total length and branch point counts ([6]; 4 and 24 hour treatments, vs 0.1% DMSO treated neurons, SSMD analysis): significant decreases
- Decreased Neurite Length SSMD Values ([6]; 4 hr, 1 μM, vs 0.1% DMSO): −7.3
- Branch Point Count SSMD Values ([6]; 4 hr, 10 μM, vs 0.1% DMSO): −3.0
- Decreased Neurite Length SSMD Values ([6]; 4 hr, 10 μM, vs 0.1% DMSO): −5.7
- Branch Point Count SSMD Values ([6]; 4 hr, 100 μM, vs 0.1% DMSO): −3.5
- Decreased Neurite Length SSMD Values ([6]; 4 hr, 100 μM, vs 0.1% DMSO): −10
- Branch Point Count SSMD Values ([6]; 24 hr, 1 μM, vs 0.1% DMSO): −3.1
- Decreased Neurite Length SSMD Values ([6]; 24 hr, 1 μM, vs 0.1% DMSO): −4.9
- Branch Point Count SSMD Values ([6]; 24 hr, 10 μM, vs 0.1% DMSO): −3.6
- Decreased Neurite Length SSMD Values ([6]; 24 hr, 10 μM, vs 0.1% DMSO): −5.4
- Branch Point Count SSMD Values ([6]; 24 hr, 100 μM, vs 0.1% DMSO): −6.0
- Decreased Neurite Length SSMD Values ([6]; 24 hr, 100 μM, vs 0.1% DMSO): −6.6
SMILES: CC[C@]1(O)C[C@H]2CN(CCc3c([nH]c4ccccc34)[C@@](C(=O)OC)(c3cc4c(cc3OC)N(C=O)[C@H]3[C@@](O)(C(=O)OC)[C@H](OC(C)=O)[C@]5(CC)C=CCN6CC[C@]43[C@@H]65)C2)C1 [Vincristine]
- Branch Point Count SSMD Values ([6]; 4 hr, 0.001 μM, vs 0.1% DMSO): NS (NS = no significant effect and >−3 SSMD Values.)
- Decreased Neurite Length SSMD Values ([6]; 4 hr, 0.001 μM, vs 0.1% DMSO): NS (NS = no significant effect and >−3 SSMD Value.)
- Branch Point Count SSMD Values ([6]; 4 hr, 0.01 μM, vs 0.1% DMSO): NS (NS = no significant effect and >−3 SSMD Values.)
- Decreased Neurite Length SSMD Values ([6]; 4 hr, 0.01 μM, vs 0.1% DMSO): NS (NS = no significant effect and >−3 SSMD Value.)
- Branch Point Count SSMD Values ([6]; 4 hr, 0.1 μM, vs 0.1% DMSO): NS (NS = no significant effect and >−3 SSMD Values.)
- Decreased Neurite Length SSMD Values ([6]; 4 hr, 0.1 μM, vs 0.1% DMSO): NS (NS = no significant effect and >−3 SSMD Value.)
- Branch Point Count SSMD Values ([6]; 4 hr, 1 μM, vs 0.1% DMSO): NS (NS = no significant effect and >−3 SSMD Values.)
- Branch Point Count SSMD Values ([6]; 24 hr, 0.001 μM, vs 0.1% DMSO): NS (NS = no significant effect and >−3 SSMD Values.)
- Decreased Neurite Length SSMD Values ([6]; 24 hr, 0.001 μM, vs 0.1% DMSO): NS (NS = no significant effect and >−3 SSMD Value.)
- Branch Point Count SSMD Values ([6]; 24 hr, 0.01 μM, vs 0.1% DMSO): NS (NS = no significant effect and >−3 SSMD Values.)
- Decreased Neurite Length SSMD Values ([6]; 24 hr, 0.01 μM, vs 0.1% DMSO): NS (NS = no significant effect and >−3 SSMD Value.)
- Branch Point Count SSMD Values ([6]; 24 hr, 0.1 μM, vs 0.1% DMSO): NS (NS = no significant effect and >−3 SSMD Values.)
- Decreased Neurite Length SSMD Values ([6]; 24 hr, 0.1 μM, vs 0.1% DMSO): NS (NS = no significant effect and >−3 SSMD Value.)
- neuron counts or neuron viability ([6]; any of the tested concentrations (1 nM-100 μM), vs 0.1% DMSO control, SSMD analysis): No significant changes of effect
